Assays:
Test in all cases: Bystander BRET endosomal trafficking (β-arrestin 1-Nluc, FYVE-mVenus), HEK293 (SSTR2 mutants);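 also: Read-out is the BRET ratio between Nluc-fused β-arrestin 1 and the early endosome marker FYVE-mVenus, measured after ligand addition with coelenterazine h as substrate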
[1] = target: SSTR2 mutants (Homo sapiens, UniProt P30874, K291A); details: for Bottom: best-fit value
Procedure: (§1) Wild-type or mutant SSTR2, β-arrestin 1-Nluc and FYVE-mVenus were co-transfected in HEK293 cells at a ratio of 1:0.5:4 on six-well plates. The next day, the transfected cells were plated on white 96-well and incubated overnight, and then cells were incubated with 90 µL HBSS containing 20 mM HEPES and coelenterazine h (5 µM) at room temperature for 40 min. After incubation, ligand was added and the signal was measured using the Synergy H1 microplate reader (BioTek) to determine a BRET ratio.

[2] = target: SSTR2 mutants (Homo sapiens, UniProt P30874, Y312A)
Procedure: as §1

[3] = target: SSTR2 mutants (Homo sapiens, UniProt P30874, W269A)
SSTR2 mutants (Homo sapiens, UniProt P30874, W269A), sequence (P30874 whole entry W269A): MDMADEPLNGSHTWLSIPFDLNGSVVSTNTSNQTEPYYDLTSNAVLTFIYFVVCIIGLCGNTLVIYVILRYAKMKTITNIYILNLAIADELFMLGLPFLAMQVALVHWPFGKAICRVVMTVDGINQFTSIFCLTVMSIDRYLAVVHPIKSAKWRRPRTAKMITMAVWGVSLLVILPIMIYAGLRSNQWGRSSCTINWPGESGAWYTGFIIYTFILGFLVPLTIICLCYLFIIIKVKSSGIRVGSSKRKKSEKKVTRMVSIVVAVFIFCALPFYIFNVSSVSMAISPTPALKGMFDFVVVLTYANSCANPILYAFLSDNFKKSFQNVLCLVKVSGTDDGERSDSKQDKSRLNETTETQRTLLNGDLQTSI
Procedure: as §1

[4] = tested on: SSTR2 mutants; details: for Fold of WT: Bystander BRET EC50; for EC50 / LogEC50 / Span / Top: best-fit value
Procedure: as §1

SSTR2 mutants (Homo sapiens, UniProt P30874, K291A), sequence (P30874 whole entry K291A): as the sequence (P30874 whole entry W269A) above, with A269W, K291A counted along it
SSTR2 mutants (Homo sapiens, UniProt P30874, Y312A), sequence (P30874 whole entry Y312A): as the sequence (P30874 whole entry W269A) above, with A269W, Y312A counted along it

N#Cc1cccc(-c2ccc3ncc(-c4cc(F)cc(F)c4)c(N4CCC(N)CC4)c3c2)c1O [paltusotine]
EC50 [1]: 89.4 ± 1.33 nM
Emax ([1]; HEK293): 86.8 ± 5.01%
Bottom ([1]; K291A-1 (run 1)): 0.9895
Bottom ([1]; K291A-2 (run 2)): -3.341
Bottom ([1]; K291A-3 (run 3)): -4.686
Bottom (best-fit) ([2]; Y312A-1 (run 1)): -0.8168
Bottom (best-fit) ([2]; Y312A-2 (run 2)): -2.056
Bottom (best-fit) ([2]; Y312A-3 (run 3)): 0.2687
EC50 [3]: 130 ± 1.65 nM
Emax ([3]; HEK293): 27.2 ± 2.61%
Bottom (best-fit) ([3]; W269A-1 (run 1)): -0.847
Bottom (best-fit) ([3]; W269A-2 (run 2)): -3.759
Bottom (best-fit) ([3]; W269A-3 (run 3)): 0.08484
Fold of WT ([4]; SSTR2 F294(7.35)A): 17.12
Fold of WT ([4]; SSTR2 I284ECL3A): 0.73
Fold of WT ([4]; SSTR2 K291(7.32)A): 0.73
Fold of WT ([4]; SSTR2 N276(6.55)A): 1.19
Fold of WT ([4]; SSTR2 W269(6.48)A): 1.06
LogEC50 (best-fit) ([4]; I130A-1 (run 1)): ~ -2.099
Span (best-fit) ([4]; I130A-1 (run 1)): ~ 8554
Top (best-fit) ([4]; I130A-1 (run 1)): ~ 8552
LogEC50 (best-fit) ([4]; I130A-2 (run 2)): -9.856
Span (best-fit) ([4]; I130A-2 (run 2)): -10.4
Top (best-fit) ([4]; I130A-2 (run 2)): -9.472
LogEC50 (best-fit) ([4]; I130A-3 (run 3)): -9.469
Span (best-fit) ([4]; I130A-3 (run 3)): 2.038
Top (best-fit) ([4]; I130A-3 (run 3)): -0.7545
LogEC50 (best-fit) ([4]; P220A-1 (run 1)): -6.735
Span (best-fit) ([4]; P220A-1 (run 1)): 12.69
Top (best-fit) ([4]; P220A-1 (run 1)): 13.21
LogEC50 (best-fit) ([4]; P220A-2 (run 2)): ~ -2.138
Span (best-fit) ([4]; P220A-2 (run 2)): ~ 22554
Top (best-fit) ([4]; P220A-2 (run 2)): ~ 22557
LogEC50 (best-fit) ([4]; P220A-3 (run 3)): -6.08
Span (best-fit) ([4]; P220A-3 (run 3)): 20.28
Top (best-fit) ([4]; P220A-3 (run 3)): 17.78
LogEC50 (best-fit) ([4]; R140A-1 (run 1)): -8.331
Span (best-fit) ([4]; R140A-1 (run 1)): 51.38
Top (best-fit) ([4]; R140A-1 (run 1)): 50.75
LogEC50 (best-fit) ([4]; R140A-2 (run 2)): -8.178
Span (best-fit) ([4]; R140A-2 (run 2)): 55.99
Top (best-fit) ([4]; R140A-2 (run 2)): 44.7
LogEC50 (best-fit) ([4]; R140A-3 (run 3)): -8.181
Span (best-fit) ([4]; R140A-3 (run 3)): 61.6
Top (best-fit) ([4]; R140A-3 (run 3)): 61.78
LogEC50 (best-fit) ([4]; W269A-1 (run 1)): -6.886
Span (best-fit) ([4]; W269A-1 (run 1)): 28.05
Top (best-fit) ([4]; W269A-1 (run 1)): 27.2
LogEC50 (best-fit) ([4]; W269A-2 (run 2)): -6.322
Span (best-fit) ([4]; W269A-2 (run 2)): 26.76
Top (best-fit) ([4]; W269A-2 (run 2)): 23
LogEC50 (best-fit) ([4]; W269A-3 (run 3)): -6.81
Span (best-fit) ([4]; W269A-3 (run 3)): 22.83
Top (best-fit) ([4]; W269A-3 (run 3)): 22.91
LogEC50 (best-fit) ([4]; Y312A-1 (run 1)): -8.087
Span (best-fit) ([4]; Y312A-1 (run 1)): 42.16
Top (best-fit) ([4]; Y312A-1 (run 1)): 41.34
LogEC50 (best-fit) ([4]; Y312A-2 (run 2)): -7.939
Span (best-fit) ([4]; Y312A-2 (run 2)): 49.41
Top (best-fit) ([4]; Y312A-2 (run 2)): 47.36
LogEC50 (best-fit) ([4]; Y312A-3 (run 3)): -8.193
Span (best-fit) ([4]; Y312A-3 (run 3)): 41.16
Top (best-fit) ([4]; Y312A-3 (run 3)): 41.43
Internalization of microswitch mutants ([4]; alanine substitution of microswitch residues): reduced receptor internalization
EC50 ([4]; F265A-1 (run 1)): 11900 nM
LogEC50 ([4]; F265A-1 (run 1)): -4.926
Span ([4]; F265A-1 (run 1)): 10.7
Top ([4]; F265A-1 (run 1)): 10.68
LogEC50 ([4]; F265A-2 (run 2)): -7.219
Span ([4]; F265A-2 (run 2)): 0.6462
Top ([4]; F265A-2 (run 2)): -7.332
EC50 ([4]; F265A-3 (run 3)): 14700 nM
LogEC50 ([4]; F265A-3 (run 3)): -4.832
Span ([4]; F265A-3 (run 3)): 19.35
Top ([4]; F265A-3 (run 3)): 19.15
EC50 ([4]; F294A-1 (run 1)): 2090 nM
LogEC50 ([4]; F294A-1 (run 1)): -5.679
